Experimental findings from ChEMBL document CHEMBL5465560, “Selectivity Literature for EUbOPEN Chemogenomic Library” (2024) are described below.

The target in assay [1] is Casein kinase I isoform alpha (Homo sapiens, UniProt P48729). The assay is described as follows: Selectivity interaction (Ambit KINOMEscan and KiNATiv profiling in Jurkat cells) EUB0000090b CSNK1A1. Format: cell-based. Conditions: at 1 µM.
Assay [2] concerns the target Serine/threonine-protein kinase PRP4 homolog (Homo sapiens) (UniProt Q13523). Conditions: at 10 µM.
The target in assay [3] is Ribosomal protein S6 kinase alpha-4 (Homo sapiens) (UniProt O75676). Nature of the assay: Selectivity interaction (KinomeScan (DiscoverX)) EUB0000666a RPS6KA4. Conditions: at 10 µM.
Assay [4] addresses Serine/threonine-protein kinase SIK2 (Homo sapiens) (UniProt Q9H0K1). The assay is described as follows: Selectivity interaction (KinomeScan (DiscoverX)) EUB0000229b SIK2. Conditions: at 10 µM.
In assay [5] the target is Calcium/calmodulin-dependent protein kinase type II subunit beta (Homo sapiens) (UniProt Q13554). The assay is described as follows: Selectivity interaction (ActivX KiNativ screen (kinase selectivity in THP-1 cell lysates)) EUB0000639a CAMK2B. Format: subcellular. Conditions: lysate, at 0.04 µM.
The target in assay [6] is T1, MAP/microtubule affinity-regulating kinase 4 (Homo sapiens) (UniProt Q96L34).
T1 sequence (whole entry): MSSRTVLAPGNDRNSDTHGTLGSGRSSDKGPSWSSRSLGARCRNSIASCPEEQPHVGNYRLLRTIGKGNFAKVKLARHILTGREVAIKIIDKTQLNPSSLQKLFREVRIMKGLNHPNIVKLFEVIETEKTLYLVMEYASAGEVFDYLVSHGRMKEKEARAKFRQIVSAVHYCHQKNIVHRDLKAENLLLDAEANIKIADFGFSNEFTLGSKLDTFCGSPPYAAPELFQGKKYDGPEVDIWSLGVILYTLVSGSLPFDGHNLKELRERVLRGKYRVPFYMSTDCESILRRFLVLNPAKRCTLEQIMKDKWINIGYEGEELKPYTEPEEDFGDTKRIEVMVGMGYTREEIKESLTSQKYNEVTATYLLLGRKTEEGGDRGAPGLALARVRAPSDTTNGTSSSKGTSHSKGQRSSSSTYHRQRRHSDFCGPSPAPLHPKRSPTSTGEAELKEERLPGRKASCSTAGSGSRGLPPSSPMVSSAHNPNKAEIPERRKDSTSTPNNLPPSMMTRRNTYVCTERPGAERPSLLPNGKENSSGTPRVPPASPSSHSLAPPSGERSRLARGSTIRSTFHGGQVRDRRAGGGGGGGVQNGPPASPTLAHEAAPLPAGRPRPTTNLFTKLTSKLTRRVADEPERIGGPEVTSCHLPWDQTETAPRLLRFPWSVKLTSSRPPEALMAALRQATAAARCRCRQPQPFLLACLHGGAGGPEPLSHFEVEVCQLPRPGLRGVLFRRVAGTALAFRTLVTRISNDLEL
Nature of the assay: Selectivity interaction (ActivX KiNativ screen (kinase selectivity in THP-1 cell lysates)) EUB0000639a MARK4. Format: subcellular. Conditions: lysate, at 0.01 µM.

Assay [7] has as its target [Pyruvate dehydrogenase (acetyl-transferring)] kinase isozyme 1, mitochondrial (Homo sapiens, UniProt Q15118). Nature of the assay: Selectivity interaction (Millipore kinase profiler) EUB0000124b PDK1. Conditions: at 10 µM.
Assay [8] concerns the target Serine/threonine-protein kinase 26 (Homo sapiens, UniProt Q9P289).
Assay [9] has as its target Tyrosine-protein kinase SYK (Homo sapiens, UniProt P43405). The assay is described as follows: Selectivity interaction (KinomeScan (DiscoverX)) EUB0000695a SYK. Conditions: at 100 nM.
For assay [10], the target named is RAC-alpha serine/threonine-protein kinase (Homo sapiens, UniProt P31749). The assay is described as follows: Selectivity interaction (ProQinase) EUB0000171b AKT1.
RAC-alpha serine/threonine-protein kinase, sequence (P31749 whole entry): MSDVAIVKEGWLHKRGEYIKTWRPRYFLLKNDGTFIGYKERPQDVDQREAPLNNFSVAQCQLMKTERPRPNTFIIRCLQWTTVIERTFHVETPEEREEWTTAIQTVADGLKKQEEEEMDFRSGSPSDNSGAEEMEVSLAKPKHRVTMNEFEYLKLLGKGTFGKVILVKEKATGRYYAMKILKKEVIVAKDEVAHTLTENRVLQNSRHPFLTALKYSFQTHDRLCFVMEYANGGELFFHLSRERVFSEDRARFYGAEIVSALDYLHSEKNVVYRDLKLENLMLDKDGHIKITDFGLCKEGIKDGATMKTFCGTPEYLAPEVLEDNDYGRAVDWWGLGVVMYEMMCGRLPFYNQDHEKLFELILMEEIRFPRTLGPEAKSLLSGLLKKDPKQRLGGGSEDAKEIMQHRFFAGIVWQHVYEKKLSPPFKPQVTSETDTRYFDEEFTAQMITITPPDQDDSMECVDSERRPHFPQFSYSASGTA
For assay [11], the target named is ALK tyrosine kinase receptor (Homo sapiens, UniProt Q9UM73). The assay is described as follows: Selectivity interaction (ProQinase) EUB0000171b ALK. Conditions: at 1 µM.
ALK tyrosine kinase receptor, sequence (Q9UM73 19-1620 limits assumed): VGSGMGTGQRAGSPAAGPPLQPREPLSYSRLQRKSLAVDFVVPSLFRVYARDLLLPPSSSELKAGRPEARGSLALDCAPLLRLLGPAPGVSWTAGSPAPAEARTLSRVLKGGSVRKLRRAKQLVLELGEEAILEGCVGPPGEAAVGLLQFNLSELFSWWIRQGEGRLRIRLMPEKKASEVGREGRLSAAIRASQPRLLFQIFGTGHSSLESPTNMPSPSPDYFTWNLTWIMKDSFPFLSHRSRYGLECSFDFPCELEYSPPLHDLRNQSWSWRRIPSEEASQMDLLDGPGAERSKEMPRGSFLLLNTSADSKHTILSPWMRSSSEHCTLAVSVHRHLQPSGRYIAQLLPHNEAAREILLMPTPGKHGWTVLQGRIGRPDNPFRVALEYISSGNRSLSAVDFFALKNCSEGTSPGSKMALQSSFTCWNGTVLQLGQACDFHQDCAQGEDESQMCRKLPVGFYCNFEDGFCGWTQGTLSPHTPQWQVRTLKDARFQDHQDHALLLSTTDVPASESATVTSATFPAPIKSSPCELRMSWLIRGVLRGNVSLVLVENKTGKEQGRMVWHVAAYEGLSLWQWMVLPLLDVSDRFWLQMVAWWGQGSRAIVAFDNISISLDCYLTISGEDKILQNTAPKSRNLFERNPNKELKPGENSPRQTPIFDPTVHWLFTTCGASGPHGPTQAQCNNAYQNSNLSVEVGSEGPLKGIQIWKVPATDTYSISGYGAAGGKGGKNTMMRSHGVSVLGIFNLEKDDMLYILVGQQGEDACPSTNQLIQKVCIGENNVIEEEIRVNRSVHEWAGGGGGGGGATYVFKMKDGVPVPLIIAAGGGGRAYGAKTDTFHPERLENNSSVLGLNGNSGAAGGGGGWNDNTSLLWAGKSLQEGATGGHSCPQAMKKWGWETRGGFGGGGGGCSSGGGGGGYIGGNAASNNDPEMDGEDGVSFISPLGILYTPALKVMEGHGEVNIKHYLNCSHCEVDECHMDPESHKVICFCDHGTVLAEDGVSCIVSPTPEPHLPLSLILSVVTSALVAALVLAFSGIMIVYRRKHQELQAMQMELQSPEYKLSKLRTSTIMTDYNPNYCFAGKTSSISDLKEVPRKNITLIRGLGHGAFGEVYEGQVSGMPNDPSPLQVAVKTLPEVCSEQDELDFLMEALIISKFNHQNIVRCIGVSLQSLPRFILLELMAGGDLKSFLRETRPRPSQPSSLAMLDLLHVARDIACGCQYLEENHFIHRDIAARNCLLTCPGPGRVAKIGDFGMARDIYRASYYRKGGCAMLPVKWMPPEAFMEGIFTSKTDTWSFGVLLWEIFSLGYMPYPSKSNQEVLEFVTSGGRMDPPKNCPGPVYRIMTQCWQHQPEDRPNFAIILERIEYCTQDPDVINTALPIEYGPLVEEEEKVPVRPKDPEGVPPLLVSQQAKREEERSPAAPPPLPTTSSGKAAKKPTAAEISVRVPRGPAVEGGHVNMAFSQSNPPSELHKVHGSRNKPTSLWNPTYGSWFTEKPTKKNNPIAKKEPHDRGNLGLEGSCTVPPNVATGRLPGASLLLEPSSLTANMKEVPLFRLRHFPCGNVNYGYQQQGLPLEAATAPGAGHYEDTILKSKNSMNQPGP
The target in assay [12] is Histone-lysine N-methyltransferase NSD3 (Homo sapiens, UniProt Q9BZ95). The assay is described as follows: Selectivity interaction (Binding affinity assay (SPR measurement)) EUB0000270b NSD3. (In general: In SPR one partner is held on a chip, and binding of the other changes the refractive index at the surface.)
The target in assay [13] is T2, Interleukin-1 receptor-associated kinase 3 (Homo sapiens) (UniProt Q9Y616).
T2 sequence (whole entry): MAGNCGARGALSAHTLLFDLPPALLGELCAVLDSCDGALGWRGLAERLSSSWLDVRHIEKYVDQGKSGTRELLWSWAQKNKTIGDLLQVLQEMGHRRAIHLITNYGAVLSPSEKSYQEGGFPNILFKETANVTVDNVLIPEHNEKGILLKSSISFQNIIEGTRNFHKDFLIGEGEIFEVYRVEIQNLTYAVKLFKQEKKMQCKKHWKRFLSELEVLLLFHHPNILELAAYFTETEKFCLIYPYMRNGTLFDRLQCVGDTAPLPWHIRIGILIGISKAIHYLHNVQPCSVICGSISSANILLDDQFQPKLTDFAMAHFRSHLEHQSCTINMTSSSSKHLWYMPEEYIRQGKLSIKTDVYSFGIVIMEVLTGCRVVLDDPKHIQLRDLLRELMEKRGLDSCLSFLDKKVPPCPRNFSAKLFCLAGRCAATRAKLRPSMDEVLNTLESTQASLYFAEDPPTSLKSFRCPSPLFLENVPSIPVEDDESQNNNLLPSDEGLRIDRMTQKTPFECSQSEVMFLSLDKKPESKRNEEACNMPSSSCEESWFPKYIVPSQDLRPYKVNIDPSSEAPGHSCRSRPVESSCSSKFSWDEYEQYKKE
Nature of the assay: Selectivity interaction (KinomeScan (DiscoverX)) EUB0000092b IRAK3. Conditions: at 10 µM.

The target of assay [14] is T3, cAMP-dependent protein kinase catalytic subunit PRKX (Homo sapiens) (UniProt P51817).
T3 sequence (whole entry): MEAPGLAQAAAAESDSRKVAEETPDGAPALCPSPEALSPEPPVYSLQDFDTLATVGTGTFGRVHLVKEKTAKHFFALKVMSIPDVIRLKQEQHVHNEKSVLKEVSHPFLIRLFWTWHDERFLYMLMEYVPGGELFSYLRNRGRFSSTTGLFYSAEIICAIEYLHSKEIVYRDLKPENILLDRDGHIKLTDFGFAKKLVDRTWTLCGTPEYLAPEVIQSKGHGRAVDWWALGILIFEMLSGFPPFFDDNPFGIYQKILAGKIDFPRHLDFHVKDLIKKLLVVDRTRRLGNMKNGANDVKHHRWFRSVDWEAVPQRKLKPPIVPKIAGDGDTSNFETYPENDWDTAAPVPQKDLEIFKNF
Nature of the assay: Selectivity interaction (KinomeScan (DiscoverX)) EUB0000092b PRKX. Conditions: at 10 µM.

Assay [15] addresses TRAF2 and NCK-interacting protein kinase (Homo sapiens) (UniProt Q9UKE5). The assay is described as follows: Selectivity interaction (KinomeScan (DiscoverX)) EUB0000045b TNIK.
Assay [16] deals with Phosphatidylinositol 4-phosphate 3-kinase C2 domain-containing subunit beta (Homo sapiens) (UniProt O00750). The assay is described as follows: Selectivity interaction (KinomeScan (DiscoverX)) EUB0000595a PIK3C2B. Conditions: at 10 µM.

Where only a bound is given, the exact number is not on record here.

TRAF2 and NCK-interacting protein kinase (Homo sapiens), sequence (Q9UKE5 whole entry, looked up, the tested form may be a part): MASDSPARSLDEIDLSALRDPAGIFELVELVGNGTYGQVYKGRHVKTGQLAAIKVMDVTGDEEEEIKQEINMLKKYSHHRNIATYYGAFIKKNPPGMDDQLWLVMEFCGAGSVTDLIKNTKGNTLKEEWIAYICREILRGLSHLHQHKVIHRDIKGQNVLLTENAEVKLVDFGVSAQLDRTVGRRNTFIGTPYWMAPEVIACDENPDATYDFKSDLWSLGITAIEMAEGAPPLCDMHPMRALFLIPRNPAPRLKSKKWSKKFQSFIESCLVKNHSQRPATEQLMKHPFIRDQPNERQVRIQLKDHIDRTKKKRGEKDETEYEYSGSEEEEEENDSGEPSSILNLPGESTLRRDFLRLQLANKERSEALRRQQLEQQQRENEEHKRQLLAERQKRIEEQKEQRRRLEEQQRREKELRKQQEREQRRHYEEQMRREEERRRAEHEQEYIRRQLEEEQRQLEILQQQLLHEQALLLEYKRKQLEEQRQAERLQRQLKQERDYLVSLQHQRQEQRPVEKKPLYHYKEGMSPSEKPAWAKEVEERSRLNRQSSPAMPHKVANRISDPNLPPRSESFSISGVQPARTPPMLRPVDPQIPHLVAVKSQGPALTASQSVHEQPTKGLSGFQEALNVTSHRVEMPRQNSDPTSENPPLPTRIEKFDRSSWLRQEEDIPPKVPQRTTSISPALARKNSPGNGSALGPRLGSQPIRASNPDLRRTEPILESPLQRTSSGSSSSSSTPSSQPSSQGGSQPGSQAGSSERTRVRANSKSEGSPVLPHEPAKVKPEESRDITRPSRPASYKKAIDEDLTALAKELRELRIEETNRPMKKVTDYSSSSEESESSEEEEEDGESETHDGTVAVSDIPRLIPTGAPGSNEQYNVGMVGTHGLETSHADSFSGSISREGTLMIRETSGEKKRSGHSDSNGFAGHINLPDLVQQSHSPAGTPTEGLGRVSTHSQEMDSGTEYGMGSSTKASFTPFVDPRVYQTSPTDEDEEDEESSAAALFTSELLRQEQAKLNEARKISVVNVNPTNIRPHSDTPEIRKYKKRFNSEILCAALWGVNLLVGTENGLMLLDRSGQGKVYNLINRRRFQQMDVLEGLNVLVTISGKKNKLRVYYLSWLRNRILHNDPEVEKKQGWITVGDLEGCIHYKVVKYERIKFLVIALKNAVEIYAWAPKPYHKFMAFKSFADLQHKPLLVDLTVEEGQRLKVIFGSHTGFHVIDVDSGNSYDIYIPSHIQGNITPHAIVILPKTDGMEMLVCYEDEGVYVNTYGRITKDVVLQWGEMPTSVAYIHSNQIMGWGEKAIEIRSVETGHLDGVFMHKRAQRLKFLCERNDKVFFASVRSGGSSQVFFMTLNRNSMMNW
Serine/threonine-protein kinase PRP4 homolog (Homo sapiens), sequence (Q13523 whole entry): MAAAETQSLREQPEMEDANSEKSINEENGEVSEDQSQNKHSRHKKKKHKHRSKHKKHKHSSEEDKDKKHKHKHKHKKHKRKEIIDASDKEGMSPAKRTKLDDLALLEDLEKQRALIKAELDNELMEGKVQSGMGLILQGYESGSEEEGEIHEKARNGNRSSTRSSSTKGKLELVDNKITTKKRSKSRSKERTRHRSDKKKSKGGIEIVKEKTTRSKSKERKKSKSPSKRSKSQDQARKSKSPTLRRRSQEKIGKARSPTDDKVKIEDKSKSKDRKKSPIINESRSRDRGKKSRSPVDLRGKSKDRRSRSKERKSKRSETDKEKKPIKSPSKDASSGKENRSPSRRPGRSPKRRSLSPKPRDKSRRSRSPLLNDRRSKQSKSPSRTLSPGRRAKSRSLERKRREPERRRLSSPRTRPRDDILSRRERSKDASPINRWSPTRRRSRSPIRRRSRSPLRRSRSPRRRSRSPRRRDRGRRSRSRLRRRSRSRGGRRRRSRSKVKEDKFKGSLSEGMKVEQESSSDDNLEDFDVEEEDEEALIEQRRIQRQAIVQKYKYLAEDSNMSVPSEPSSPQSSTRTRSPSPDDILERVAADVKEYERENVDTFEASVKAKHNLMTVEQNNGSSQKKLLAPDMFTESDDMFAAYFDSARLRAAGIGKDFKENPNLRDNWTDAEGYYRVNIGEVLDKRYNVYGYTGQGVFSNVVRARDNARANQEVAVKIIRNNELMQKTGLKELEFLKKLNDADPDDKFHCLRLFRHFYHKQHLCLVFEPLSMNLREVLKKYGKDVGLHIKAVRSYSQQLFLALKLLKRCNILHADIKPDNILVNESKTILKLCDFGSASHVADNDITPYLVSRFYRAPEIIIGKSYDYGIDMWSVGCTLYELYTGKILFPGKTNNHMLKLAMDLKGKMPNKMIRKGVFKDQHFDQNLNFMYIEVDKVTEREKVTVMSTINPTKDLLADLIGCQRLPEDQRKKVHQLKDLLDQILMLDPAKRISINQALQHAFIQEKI
Casein kinase I isoform alpha, sequence (P48729 2-337 limits assumed): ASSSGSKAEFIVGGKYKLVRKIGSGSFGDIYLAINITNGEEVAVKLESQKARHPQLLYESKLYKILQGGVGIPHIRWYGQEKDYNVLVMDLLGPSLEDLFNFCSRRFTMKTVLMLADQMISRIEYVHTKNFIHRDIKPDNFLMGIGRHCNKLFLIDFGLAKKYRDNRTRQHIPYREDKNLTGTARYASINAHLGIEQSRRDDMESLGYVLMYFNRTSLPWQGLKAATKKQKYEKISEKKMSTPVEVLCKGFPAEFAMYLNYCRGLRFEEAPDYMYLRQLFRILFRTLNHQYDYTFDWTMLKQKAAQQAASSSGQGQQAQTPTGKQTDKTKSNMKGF

`CN(C)C/C=C/C(=O)Nc1ccc(C(=O)N2CCCC(Nc3ncc(Cl)c(-c4c[nH]c5ccccc45)n3)C2)cc1` (stereo not drawn): the % of control in assay [1] is 51%.

`Cc1cc([C@@H](C)Nc2ccccc2C(=O)O)c2nc(N3CCOCC3)cc(=O)n2c1` [AZD-6482] yielded a % of control in [2] of 71%.

For `O=C(NOC[C@H](O)CO)c1ccc(F)c(F)c1Nc1ccc(I)cc1F`, the % of control in [3] turned out to be 86%.

Take `COc1cc(N(C)c2ccnc3ccc(C(F)(F)F)cc23)cc(OC)c1OC`: the % binding in assay [4] is 98%.

Regarding `CC[C@@H]1[C@H](F)C(=O)N[C@@H]1COc1nccc2cc(C(N)=O)c(OC)cc12` [ZIMLOVISERTIB], the % of inhibition in assay [5] was 12.8%; in assay [6], 9.6%.

Turning to `CC(=O)Nc1cccc(-n2c(=O)n(C3CC3)c(=O)c3c(Nc4ccc(I)cc4F)n(C)c(=O)c(C)c32)c1`, in [7], the % of control was 107%.

By IC50 is commonly meant the point on the concentration scale where inhibition reaches its midpoint. High values mean weaker potency, low ones greater potency. The molecule `CCc1cccc(CC)c1NC(=O)c1nn(C)c2c1CCc1cnc(Nc3ccc(C(=O)NC4CCN(C)CC4)cc3OC(F)(F)F)nc1-2` showed a concentration for half-maximal inhibition (IC50) in [8] of over 10 µM.

In turn, `Cc1cc(F)c(C(=O)Nc2cccc(-c3nncn3C(C)C)n2)cc1-n1cnc(C2CC2)c1` displayed a % of control in assay [9] of 76%.

With `C=CC(=O)Nc1cccc(C(=O)Nc2ccc(Nc3cc(-c4[nH]c(SC)nc4C)ccn3)cc2)c1`, the figures for the % of control in [10] (at 1 µM), in [10] (at 5 µM) and in assay [11] were 84%, 69% and 94%, respectively.

As usually defined, the Kd is the free concentration of one partner at which half of the binding sites on the other are occupied at equilibrium, for simple one-to-one binding. A high value points to weaker binding. With `Cc1cc(CN)cc(C)c1-c1ncn(C)c1-c1cncn1C`, binding in assay [12] was characterised by a dissociation constant (Kd) of 144 µM.

Consider `CCC(=O)N1CCN(c2ccc(-n3c(=O)ccc4cnc5ccc(-c6cnc7ccccc7c6)cc5c43)cc2C(F)(F)F)CC1`, for which the % of control came out at 27% in assay [13] and 83% in assay [14].

On to `C=CC(=O)Nc1cc(-n2c(=O)ccc3cnc4ccc(-c5ccc(NS(C)(=O)=O)cc5)cc4c32)ccc1C`, for which the results for the % of control in assay [15] (at 1 µM) and in assay [15] (at 10 µM) were 96% and 100%, respectively.

Consider `COCC(=O)NC/C=C/c1ccc2ncnc(Nc3ccc(Oc4ccc(C)nc4)c(C)c3)c2c1` [CP-724714], for which the % of control in [16] was 88%.
